Test results as given in patent US7157561B2, “Methods of inhibiting transmission of a costimulatory signal of lymphocytes” (Roche Diagnostics Operations, Inc., priority 2001, dated 2007).

Legend:
[1] = system: antibody ATZ 3.1; test: Antibody specificity ELISA (competition of free drug with atazanavir-BSA conjugate), antibody ATZ 3.1; assay type: binding, mouse; conditions: for ED50 (M/L): free drug concentration giving 50% of binding in absence of free drug, 4-parameter logistic fit; for % Cross Rx: relative to atazanavir ED50
Experimental: (§1) Screening of growing hybridomas was carried out by an ELISA using the atazanavir-BSA conjugate (7) and free atazanavir. Microplates were coated with 50 μL atazanavir-BSA conjugate at 1 μg/mL in 0.1 M carbonate buffer, pH 9.5 for 1 hour at 37° C. (humidified). The plates were then emptied and filled with a post-coat solution consisting of Tris buffer, 1% gelatin hydrolysate, 2% sucrose, and 0/17% TWEEN 20 (all from Sigma Chemical Co.). The plates were incubated for an additional 1 hour at 37° C. (humidified) after which they were washed with phosphate-buffered saline containing 0.1% TWEEN 20. The plates were then filled with a 2% sucrose solution in 0.15 M Tris, pH 7.2–7.4 briefly, then emptied and allowed to air dry at room temperature. When dried, the plates were packed in zip-lock bags containing several desiccant pillows, sealed, and stored at 4° C. until use.
(§2) When the growing clones were judged ready for testing, 25 μL of supernatant from the wells were taken and transferred to 96-well flexible plates. Culture medium was added to each well to provide a 1:10 dilution of the media sample. Two atazanavir-BSA coated wells were used for each culture well tested. One well received 25 μL of PBS buffer, the other received 25 μL of PBS containing atazanavir drug at a concentration of 800 ng/ml. Twenty-five microliters of the diluted sample were transferred to each of two of the coated wells above. The plates were incubated covered for 1 hour at 37° C., then washed with PBS-TWEEN. The wells were then filled with 100 μL of goat anti-mouse IgG-HRP conjugate (Zymed Labs) diluted 1:5,000 in PBS-TWEEN and the plates re-incubated for 1 hour. The plates were then washed again, and 100 μL of K-BLUE SUBSTRATE (Neogen Corp) were added to each well. This was allowed to develop for 5–15 minutes, the reaction being stopped by the addition of 100 μL of 1 N HCl. Color was read via a microplate reader at 450 nm and collected by computer for analysis. Criteria for selection were binding to the well in which the PBS was added and significant inhibition of binding in the well receiving the free drug.
(§3) The antibody containing culture supernatants from the expansion cultures were subjected to specificity analysis by the following procedure. First, the titer appropriate for analysis was determined by dilution analysis. A dilution of antibody providing for approximately 50% of maximal binding was selected for proceeding to the next step. Second, binding to the atazanavir-BSA conjugate was examined at the above antibody dilution, in the presence of varying amounts of seven HIV protease inhibitor drugs. The data was subjected to analysis by non-linear regression curve fitting to a 4-parameter logistic function. That parameter which describes the concentration of the free drug which corresponds to 50% of the binding in the absence of free drug is termed the ED50 for that drug. The specificity of the antibody can thus be described by comparing the ED50 of the cognate drug, atazanavir, or atz ED50 with the other values for other drugs fitted from those data according to the following equation (using nelfinavir data for this example):
(§4) [formula] The four parameter logistic function used is
(§5) [formula] where S is the curvature parameter, ODmax is the optical density with 0 drug concentration, ODmin is the optical density of the background of the instrument, and ODx is the optical density observed at drug concentration X in moles/liter (M/L).
(§6) Atazanavir metabolite is 4-pyridin-2-yl-benzoic acid (Synchem, Inc.).

[2] = system: antibody ATZ 4.1; test: Antibody specificity ELISA (competition of free drug with atazanavir-BSA conjugate), antibody ATZ 4.1; assay type: binding, mouse; conditions: for ED50 (M/L): free drug concentration giving 50% of binding in absence of free drug, 4-parameter logistic fit; for % Cross Rx: relative to atazanavir ED50
Experimental: as §1, §2, §3, §4, §5, §6

In the case of `CC(C)CN(C[C@@H](O)[C@H](Cc1ccccc1)NC(=O)O[C@H]1CCOC1)S(=O)(=O)c1ccc(N)cc1` [Amprenavir, amprenavir], the “ED50 (M/L)” value [1] is reported as >2 × 10^−6 M/L, the “% Cross Rx” value [1] is reported as <1% and the “ED50 (M/L)” value [2] is reported as >2 × 10^−6 M/L. The “% Cross Rx” value [2] was <1%.

With `O=C(O)c1ccc(-c2ccccn2)cc1` [Atazanavir metabolite, 4-pyridin-2-yl-benzoic acid] the “ED50 (M/L)” value [1] was >2 × 10^−6 M/L, the “% Cross Rx” value [1] was <1% and the “ED50 (M/L)” value [2] was >2 × 10^−6 M/L. For the same compound, the “% Cross Rx” value [2] was <1%.

`COC(=O)N[C@H](C(=O)N[C@@H](Cc1ccccc1)[C@@H](O)CN(Cc1ccc(-c2ccccn2)cc1)NC(=O)[C@@H](NC(=O)OC)C(C)(C)C)C(C)(C)C` [Atazanavir, atazanavir] was tested, and the “ED50 (M/L)” value [1] was 7 × 10^−7 M/L, the “% Cross Rx” value [1] was 100% and the “ED50 (M/L)” value [2] was 4.4 × 10^−6 M/L. For the same compound, the “% Cross Rx” value [2] was 100%.

In the case of `CC(C)(C)NC(=O)[C@@H]1CN(Cc2cccnc2)CCN1C[C@@H](O)C[C@@H](Cc1ccccc1)C(=O)N[C@H]1c2ccccc2C[C@H]1O` [Indinavir, indinavir], the “ED50 (M/L)” value [1] is reported as >2 × 10^−6 M/L, the “% Cross Rx” value [1] is reported as <1% and the “ED50 (M/L)” value [2] is reported as >2 × 10^−6 M/L. For the same compound, the “% Cross Rx” value [2] was <1%.

`Cc1cccc(C)c1OCC(=O)N[C@@H](Cc1ccccc1)[C@@H](O)C[C@H](Cc1ccccc1)NC(=O)[C@H](C(C)C)N1CCCNC1=O` [Lopinavir, lopinavir] was tested, and the “ED50 (M/L)” value [1] was >2 × 10^−6 M/L, the “% Cross Rx” value [1] was <1% and the “ED50 (M/L)” value [2] was >2 × 10^−6 M/L. The “% Cross Rx” value [2] was <1%.

With `Cc1c(O)cccc1C(=O)N[C@@H](CSc1ccccc1)[C@H](O)CN1C[C@H]2CCCC[C@H]2C[C@H]1C(=O)NC(C)(C)C` [Nelfinavir, nelfinavir] the “ED50 (M/L)” value [1] was >2 × 10^−6 M/L, the “% Cross Rx” value [1] was <1% and the “ED50 (M/L)” value [2] was >2 × 10^−6 M/L. For the same compound, the “% Cross Rx” value [2] was <1%.

With `CC(C)c1nc(CN(C)C(=O)N[C@H](C(=O)N[C@@H](Cc2ccccc2)C[C@H](O)[C@H](Cc2ccccc2)NC(=O)OCc2cncs2)C(C)C)cs1` [Ritonavir, ritonavir] the “ED50 (M/L)” value [1] was >2 × 10^−6 M/L, the “% Cross Rx” value [1] was <1% and the “ED50 (M/L)” value [2] was >2 × 10^−6 M/L. For the same compound, the “% Cross Rx” value [2] was <1%.

For `CC(C)(C)NC(=O)[C@@H]1C[C@@H]2CCCC[C@@H]2CN1C[C@@H](O)[C@H](Cc1ccccc1)NC(=O)[C@H](CC(N)=O)NC(=O)c1ccc2ccccc2n1` [Saquinavir, saquinavir], the “ED50 (M/L)” value [1] was >2 × 10^−6 M/L, the “% Cross Rx” value [1] was <1% and the “ED50 (M/L)” value [2] was >2 × 10^−6 M/L. The “% Cross Rx” value [2] was <1%.
